{
  "source": "paper PMC5346980",
  "about": "(ACS Medicinal Chemistry Letters, 2017)",
  "key": {"[1]": {"target": "CYP2C19 (Homo sapiens, UniProt P33261)", "sequence (P33261 whole entry)": "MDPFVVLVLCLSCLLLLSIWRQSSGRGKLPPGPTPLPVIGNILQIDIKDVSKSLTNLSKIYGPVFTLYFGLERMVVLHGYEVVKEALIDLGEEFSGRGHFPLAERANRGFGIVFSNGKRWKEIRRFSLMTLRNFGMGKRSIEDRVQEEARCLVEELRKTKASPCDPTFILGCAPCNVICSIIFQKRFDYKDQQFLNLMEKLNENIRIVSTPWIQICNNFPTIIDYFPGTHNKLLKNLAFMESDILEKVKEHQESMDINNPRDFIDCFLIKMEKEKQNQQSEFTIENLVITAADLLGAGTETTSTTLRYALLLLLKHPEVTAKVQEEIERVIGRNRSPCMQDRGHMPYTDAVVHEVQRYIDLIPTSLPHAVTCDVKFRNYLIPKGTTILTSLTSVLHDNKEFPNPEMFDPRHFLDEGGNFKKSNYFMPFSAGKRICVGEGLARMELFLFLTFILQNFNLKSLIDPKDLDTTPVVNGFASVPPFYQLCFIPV", "test": "Time-dependent CYP inhibition", "format": "in vitro ADME"}, "[2]": {"target": "CYP3A4 (Homo sapiens, UniProt P08684)", "sequence (P08684 whole entry)": "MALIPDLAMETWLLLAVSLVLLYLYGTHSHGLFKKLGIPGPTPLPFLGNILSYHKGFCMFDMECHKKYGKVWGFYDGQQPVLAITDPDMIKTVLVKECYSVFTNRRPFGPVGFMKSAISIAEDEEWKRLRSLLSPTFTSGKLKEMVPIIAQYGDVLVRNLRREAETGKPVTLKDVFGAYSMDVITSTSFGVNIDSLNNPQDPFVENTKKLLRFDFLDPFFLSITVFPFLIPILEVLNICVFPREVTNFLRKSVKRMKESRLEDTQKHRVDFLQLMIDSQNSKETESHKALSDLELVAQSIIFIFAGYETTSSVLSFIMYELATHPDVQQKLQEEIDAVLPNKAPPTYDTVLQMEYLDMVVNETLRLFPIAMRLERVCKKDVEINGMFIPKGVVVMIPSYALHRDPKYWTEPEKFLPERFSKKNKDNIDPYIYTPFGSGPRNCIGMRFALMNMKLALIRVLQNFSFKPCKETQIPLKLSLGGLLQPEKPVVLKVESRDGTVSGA", "test": "Time-dependent CYP inhibition", "format": "in vitro ADME"}, "[3]": {"target": "P-gp (Homo sapiens, UniProt P08183)", "sequence (P08183 whole entry)": "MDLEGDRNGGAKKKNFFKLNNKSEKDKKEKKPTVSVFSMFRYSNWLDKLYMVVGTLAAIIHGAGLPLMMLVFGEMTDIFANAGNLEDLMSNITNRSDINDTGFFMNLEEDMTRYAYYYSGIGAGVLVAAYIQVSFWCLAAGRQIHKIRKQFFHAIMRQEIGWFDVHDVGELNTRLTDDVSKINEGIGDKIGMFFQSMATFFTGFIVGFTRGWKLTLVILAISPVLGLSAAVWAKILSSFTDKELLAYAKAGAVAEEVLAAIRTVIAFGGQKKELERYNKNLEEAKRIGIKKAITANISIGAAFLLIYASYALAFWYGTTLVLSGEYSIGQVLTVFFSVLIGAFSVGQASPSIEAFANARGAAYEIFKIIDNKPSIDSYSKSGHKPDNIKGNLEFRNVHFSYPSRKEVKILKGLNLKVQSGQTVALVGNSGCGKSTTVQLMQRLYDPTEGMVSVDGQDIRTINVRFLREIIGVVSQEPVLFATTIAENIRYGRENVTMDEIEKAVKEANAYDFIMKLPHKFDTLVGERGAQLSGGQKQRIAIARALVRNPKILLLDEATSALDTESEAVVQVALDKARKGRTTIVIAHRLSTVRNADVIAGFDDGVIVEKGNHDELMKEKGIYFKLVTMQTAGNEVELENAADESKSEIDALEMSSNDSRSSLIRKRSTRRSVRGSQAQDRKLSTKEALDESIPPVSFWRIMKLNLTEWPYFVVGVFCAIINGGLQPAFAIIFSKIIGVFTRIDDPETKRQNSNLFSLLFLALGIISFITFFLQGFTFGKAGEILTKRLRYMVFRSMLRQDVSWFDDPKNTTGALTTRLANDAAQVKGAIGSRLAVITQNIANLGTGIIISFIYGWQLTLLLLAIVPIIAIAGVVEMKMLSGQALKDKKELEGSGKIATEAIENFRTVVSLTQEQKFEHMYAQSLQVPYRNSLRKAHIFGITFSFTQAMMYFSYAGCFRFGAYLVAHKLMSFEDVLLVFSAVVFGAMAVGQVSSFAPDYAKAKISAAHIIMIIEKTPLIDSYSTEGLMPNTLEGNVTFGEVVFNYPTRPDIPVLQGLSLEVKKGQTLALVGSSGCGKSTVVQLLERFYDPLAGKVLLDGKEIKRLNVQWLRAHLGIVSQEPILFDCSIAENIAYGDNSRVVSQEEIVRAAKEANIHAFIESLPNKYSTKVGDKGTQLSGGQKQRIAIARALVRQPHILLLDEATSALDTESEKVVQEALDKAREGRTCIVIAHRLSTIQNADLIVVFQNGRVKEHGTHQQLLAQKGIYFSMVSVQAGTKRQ", "test": "Transporter substrate assessment", "format": "in vitro ADME"}, "[4]": {"target": "T1, BCRP (Homo sapiens, UniProt Q9UNQ0)", "T1 sequence (Q9UNQ0 1-655)": "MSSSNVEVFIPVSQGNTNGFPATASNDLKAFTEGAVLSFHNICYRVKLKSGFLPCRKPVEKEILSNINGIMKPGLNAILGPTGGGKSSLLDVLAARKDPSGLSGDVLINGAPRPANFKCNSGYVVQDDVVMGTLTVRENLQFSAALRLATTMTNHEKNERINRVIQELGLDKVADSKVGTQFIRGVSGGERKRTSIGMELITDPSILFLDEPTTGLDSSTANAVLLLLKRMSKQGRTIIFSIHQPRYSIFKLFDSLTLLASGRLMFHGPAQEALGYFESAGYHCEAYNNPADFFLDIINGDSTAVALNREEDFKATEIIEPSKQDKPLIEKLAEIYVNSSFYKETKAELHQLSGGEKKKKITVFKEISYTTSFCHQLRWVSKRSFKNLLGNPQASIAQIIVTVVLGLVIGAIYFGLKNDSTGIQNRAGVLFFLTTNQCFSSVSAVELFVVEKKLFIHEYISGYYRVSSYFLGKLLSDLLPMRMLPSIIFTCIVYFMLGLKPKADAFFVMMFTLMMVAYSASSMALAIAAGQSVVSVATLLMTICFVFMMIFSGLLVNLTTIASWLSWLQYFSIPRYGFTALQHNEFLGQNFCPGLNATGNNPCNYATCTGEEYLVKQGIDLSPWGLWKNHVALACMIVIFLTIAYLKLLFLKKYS", "test": "Transporter substrate assessment", "format": "in vitro ADME"}, "[5]": {"settings": "rats; cited from earlier work"}, "[6]": {"settings": "dogs; cited from earlier work"}, "[7]": {"settings": "monkeys; cited from earlier work"}, "[8]": {"target": "purified Hb (a mixture of HbA and HbS) (Homo sapiens, UniProt P69905)", "sequence (P69905 2-142 limits assumed)": "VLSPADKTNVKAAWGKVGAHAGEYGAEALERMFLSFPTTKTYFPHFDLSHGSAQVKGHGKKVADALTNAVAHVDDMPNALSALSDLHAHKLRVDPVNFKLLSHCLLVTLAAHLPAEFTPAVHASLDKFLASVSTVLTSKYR", "test": "Hemoximetry oxygen equilibrium curves", "format": "biochemical", "settings": "des-formyl compound lacking the aldehyde"}, "[9]": {"target": "Purified Hb (Homo sapiens, UniProt P69905)", "sequence (P69905 2-142 limits assumed)": "as above", "test": "Time dependence of hemoglobin-oxygen affinity", "format": "biochemical", "settings": "Purified Hb 25 µM, 37 °C"}},
  "note": "Where two headings read alike, the source gives them in different places.",
  "data": [
    {"compound": "CC(C)n1nccc1-c1ncccc1COc1cccc(O)c1C=O", "note": "[Compound 36]", "values": [
      {"measurement": "time-dependent inhibition", "setting": "[1]", "value": "no significant time-dependent inhibition"},
      {"measurement": "time-dependent inhibition", "setting": "[2]", "value": "no significant time-dependent inhibition"},
      {"measurement": "substrate for P-gp transporter", "setting": "[3]", "value": "not a substrate"},
      {"measurement": "substrate for BCRP transporter", "setting": "[4]", "value": "not a substrate"},
      {"measurement": "blood and plasma half-lives", "setting": "[5]", "value": "approximately 20 h"},
      {"measurement": "blood and plasma half-lives", "setting": "[6]", "value": "approximately 20 h"},
      {"measurement": "blood and plasma half-lives", "setting": "[7]", "value": "approximately 20 h"}
    ]},
    {"compound": "COc1ccc(OCc2cccnc2-c2ccnn2C(C)C)cn1", "note": "[Compound 46]", "values": [
      {"measurement": "activity as Hb allosteric modulator (result in words)", "setting": "[8]", "value": "inactive"}
    ]},
    {"compound": "COc1ccc(OCc2cccnc2)c(C=O)c1", "note": "[Compound 4]", "values": [
      {"measurement": "time to maximum effect on Hb oxygenation (surrogate for on-rate)", "setting": "[9]; compound 100 µM", "value": "~1", "unit": "h"}
    ]},
    {"compound": "O=Cc1ccc(CO)o1", "note": "[Compound 1, 5-hydroxymethylfurfural]", "values": [
      {"measurement": "time to maximum effect on Hb oxygenation (surrogate for on-rate)", "setting": "[9]; compound 5 mM", "value": "~1", "unit": "h"}
    ]}
  ]
}
